In experiment [1] the test system is Vibrio harveyi. Description: Inhibition of AHL-mediated quorum sensing system in Vibrio harveyi BB886 assessed as reduction in luminescence at 10 ug/ml by bioluminescence method relative to control. The conditions noted are these: dose 10.0 µg/ml.
Experiment [2] in a line: Inhibition of Escherichia coli RP347 planktonic cell growth at 50 ug/ml by microplate reader analysis relative to control. The conditions noted are these: RP347, dose 50 µg/ml. Format: functional.
In experiment [3] the test system is Vibrio harveyi. As to the kind of experiment: Inhibition of AI-2-mediated quorum sensing system in Vibrio harveyi BB170 assessed as reduction in AI-2 production at 10 ug/ml by bioluminescence method relative to control. The conditions noted are these: dose 10.0 µg/ml.
In experiment [4] the test system is Pseudomonas aeruginosa. Description: Inhibition of biofilm formation in Pseudomonas aeruginosa PAO1 at 50 ug/ml by crystal violet staining based microtiter plate method relative to control. The experiment is classed as functional.
For experiment [5], the system named is Escherichia coli. Description: Inhibition of biofilm formation in Escherichia coli RP347 at 50 ug/ml by crystal violet staining based microtiter plate method. Format: functional, organism-based. The conditions noted are these: dose 50.0 µg/ml.
Experiment [6] has as its system Pseudomonas aeruginosa. As to the kind of experiment: Induction of biofilm formation in Pseudomonas aeruginosa PAO1 at 50 ug/ml by crystal violet staining based microtiter plate method relative to control. The experiment is classed as functional. The conditions noted are these: dose 50.0 µg/ml.
The subject of experiment [7] is Escherichia coli. Description: Inhibition of biofilm formation in Escherichia coli RP347 at 50 ug/ml by crystal violet staining based microtiter plate method relative to control. The experiment is classed as functional. The settings on record: for inhibition at 50 µg/mL: Escherichia coli, RP347, dose 50 µg/ml.

The source of these data is ChEMBL document CHEMBL5131415, “Cadiolide analogues and their precursors as new inhibitors of bacterial quorum sensing and biofilm formation” (2022).

SMILES strings stand for the structures. Calls of active or inactive are those of the source. No cut-off for these calls is given here.

On to `O=C1O/C(=C\c2ccc(O)c(Br)c2)C(c2ccc(O)c(Br)c2)=C1C(=O)c1ccc(O)cc1`, for which the inhibition came to 88.7% in the experiment with Vibrio harveyi [1] and 99.6% in the experiment with Vibrio harveyi [3]. Besides, the figures for the inhibition at 50 µg/mL (in experiment [2]; in the experiment with Pseudomonas aeruginosa [4]) were 33.4% and 10%, respectively.

As for `COc1ccc(C(=O)C2=C(c3ccc(OC)c(Br)c3)COC2=O)cc1`, the inhibition result in the experiment on Escherichia coli [5] was “Active”. Also, testing at 50 µg/mL in experiment [2] gave an inhibition of 87.4%.

With `O=C1O/C(=C\c2ccc(O)c(Br)c2)C(c2ccc(O)c(Br)c2)=C1C(=O)c1cccc(Br)c1`, the inhibition entry in the experiment on Escherichia coli [5] is “Active”.

Regarding `COc1ccc(C(=O)C2=C(c3ccc(OC)c(Br)c3)/C(=C/c3ccc(Cl)cc3)OC2=O)cc1`, in the experiment on Escherichia coli [5], the inhibition result is “Active”. Moreover, 50 µg/mL produced 10% inhibition in the experiment on Pseudomonas aeruginosa [4].

As to `COc1ccc(/C=C2\OC(=O)C(C(=O)c3ccc(Br)cc3)=C2c2cccc(OC)c2)cc1`, the inhibition result in the experiment with Escherichia coli [5] is “Active”. This compound also displayed an Activity in the experiment with Pseudomonas aeruginosa [6] of over 75%. In addition, the inhibition with Vibrio harveyi [3] came out at 76.1%.

`O=C1O/C(=C\c2ccc(O)cc2)C(c2ccc(O)c(Br)c2)=C1C(=O)c1ccc(Br)cc1`: the figures for the inhibition at 50 µg/mL (in experiment [2]; in the experiment with Escherichia coli [7]) were 61.9% and 100%, respectively.

For `COc1cccc(C2=C(C(=O)c3ccc(Br)cc3)C(=O)O/C2=C\c2ccc(OC)c(Br)c2)c1`, the inhibition result in the experiment on Escherichia coli [5] was “Active”.

In the case of `COc1ccc(/C=C2\OC(=O)C(C(=O)c3cccc(Br)c3)=C2c2ccc(OC)c(Br)c2)cc1Br`, the inhibition result in the experiment with Escherichia coli [5] is “Active”.

With `COc1ccc(C#CC(=O)c2ccc(Br)cc2)cc1`, the inhibition result in the experiment with Escherichia coli [5] is “Active”. Besides, the inhibition at 50 µg/mL in experiment [2] was determined as 82.6%; in the experiment on Pseudomonas aeruginosa [4] it was 29%. Also, the inhibition in the experiment on Vibrio harveyi [3] was 100%.

Regarding `COc1cc(OC)c(/C=C2\OC(=O)C(C(=O)c3ccc(Br)cc3)=C2c2ccc(OC)c(Br)c2)c(OC)c1`, the inhibition at 50 µg/mL in the experiment with Escherichia coli [7] came out at 100%.

Compound `COc1ccc(C2=C(C(=O)c3ccc(Br)cc3)C(=O)O/C2=C\c2ccc(C(F)(F)F)cc2)cc1Br` registered an Activity in the experiment with Pseudomonas aeruginosa [6] of over 75%.

On to `COc1cc(C#CC(=O)c2ccc(Br)cc2)ccc1Br`, for which the inhibition in the experiment with Vibrio harveyi [1] turned out to be 80%. Besides, the values for the inhibition at 50 µg/mL in the experiment with Pseudomonas aeruginosa [4] and in the experiment on Escherichia coli [7] were 29% and 75.1%, respectively.

Consider `COc1ccc(C2=C(C(=O)c3cccc(Br)c3)C(=O)OC2)cc1Br`, for which the inhibition result in the experiment on Escherichia coli [5] was “Active”. The same compound came in with an Activity with Pseudomonas aeruginosa [6] of over 80%. Moreover, the inhibition in the experiment on Vibrio harveyi [3] is over 80%. The compound also displayed an inhibition at 50 µg/mL in the experiment with Escherichia coli [7] of 81.2%.

As to `COc1cccc(C2=C(C(=O)c3ccc(Br)cc3)C(=O)O/C2=C\c2ccc(Br)cc2)c1`, in the experiment with Escherichia coli [5], the inhibition result is “Active”.

Take `COc1ccc(/C=C2\OC(=O)C(C(=O)c3ccc(Br)cc3)=C2c2ccc(OC)c(Br)c2)cc1`: in the experiment with Vibrio harveyi [1], the inhibition stood at 78.1%. For the same compound, 50 µg/mL produced 100% inhibition in the experiment with Escherichia coli [7].

Consider `COc1ccc(/C=C2\OC(=O)C(C(=O)c3ccc(Br)cc3)=C2c2ccc(OC)c(Br)c2)cc1Br`, for which, in the experiment with Escherichia coli [5], the inhibition entry is “Active”. In the experiment with Vibrio harveyi [1], the inhibition was 76.1%. In the experiment with Pseudomonas aeruginosa [6], this compound registered an Activity of over 75%.

As to `COc1ccc(C2=C(C(=O)c3ccc(Br)cc3)C(=O)O/C2=C\c2ccc(Br)cc2)cc1Br`, in the experiment on Escherichia coli [5], the inhibition result was “Active”.

In the experiment with Escherichia coli [7], `O=C1O/C(=C\c2ccc(O)c(Br)c2)C(c2ccc(O)c(Br)c2)=C1C(=O)c1ccc(Br)cc1` came in with an inhibition at 50 µg/mL of 100%.

For `COc1cc(C#CC(=O)c2cccc(Br)c2)ccc1Br`, the inhibition entry in the experiment on Escherichia coli [5] was “Active”. Moreover, the inhibition in the experiment on Vibrio harveyi [3] worked out at 100%.

Consider `COc1ccc(C2=C(C(=O)c3ccc(Br)cc3)C(=O)OC2)cc1Br`, for which the inhibition was 72.6% in the experiment with Vibrio harveyi [1] and over 80% in the experiment with Vibrio harveyi [3]. Further, the inhibition at 50 µg/mL in the experiment on Pseudomonas aeruginosa [4] amounted to 15.3%; with Escherichia coli [7] it was 100%.

`COc1cccc(C2=C(C(=O)c3ccc(Br)cc3)C(=O)OC2)c1`: the inhibition entry with Escherichia coli [5] was “Active”. The inhibition at 50 µg/mL in experiment [2] was found to be 76.5%; with Pseudomonas aeruginosa [4], 22.7%.

For the compound `COc1ccc(C(=O)C2=C(c3ccc(OC)c(Br)c3)/C(=C/c3ccc(OC)c(Br)c3)OC2=O)cc1`, the inhibition result in the experiment with Escherichia coli [5] is “Active”. Besides, in the experiment with Vibrio harveyi [3], the inhibition was determined as 74.9%.

With `COc1ccc(C(=O)C#Cc2ccc(Br)c(OC)c2)cc1`, the inhibition result in the experiment on Escherichia coli [5] is “Active”. The compound further had an Activity with Pseudomonas aeruginosa [6] of over 80%. The inhibition in the experiment with Vibrio harveyi [3] was 100%.

Compound `O=C1O/C(=C\c2ccc(Br)cc2)C(c2ccc(O)c(Br)c2)=C1C(=O)c1ccc(Br)cc1` came in with an inhibition at 50 µg/mL in the experiment on Escherichia coli [7] of 100%. The “inhibition (INH)” value with Escherichia coli [7] (dose 50 µg/ml) was determined as 90%.

Take `COc1ccc(C2=C(C(=O)c3cccc(Br)c3)C(=O)O/C2=C\c2ccc(Cl)cc2)cc1Br`: the Activity in the experiment with Pseudomonas aeruginosa [6] was over 75%. The same compound registered an inhibition at 50 µg/mL with Escherichia coli [7] of 100%.

What is called inhibition is the percentage by which the read-out fell short of the control.
